Assay results published in US20230190811A1, “COMPOSITIONS AND METHODS FOR USE IN THE TREATMENT OF CANCER” (Poseida Therapeutics, Inc., priority 2020, published 2023).
Read-outs that look alike come from different tables or passages of the source.

How the values were obtained:
[1] = test system: relapsed/refractory MM; settings: standard of care; cited from earlier work
[2] = test system: human pan T-cells with iC9 safety switch; assay: iC9 safety switch test: viability of modified T cells incubated with AP1903 (7-AAD flow cytometry); type: cell-based
Description: Human pan T-cells were nucleofected using an Amaxa 4D nucleofector with one of four piggyBac transposons. Modified T cells receiving the “mock” condition were nucleofected with an empty piggyBac transposon. Modified T cells received either a piggyBac transposon containing a therapeutic agent alone (a sequence encoding a CARTyrin) or a piggyBac transposon containing an integrated iC9 sequence and a therapeutic agent (a sequence encoding a CARTyrin). To test the iC9 safety switch, each of the four modified T cells were incubated for 24 hours with 0, 0.1 nM, 1 nM, 10 nM, 100 nM or 1000 nM AP1903 (an induction agent for […]). Viability was assessed by flow cytometry using 7-aminoactinomycin D (7-AAD), a fluorescent intercalator, as a marker for cells undergoing apoptosis.

[3] = GLP repeat dose intravenous toxicity study of rimiducid in rats; settings: rat, in vivo
Description: In vitro and in vivo studies have been conducted by Poseida with rimiducid and the iC9-based safety switch-containing CAR-T cell product P-BCMA-101 with similar results. A GLP repeat dose intravenous toxicity study in rats has recently been conducted by Poseida. […] (see Rimiducid Investigator's Brochure for further detail).

[4] = test system: cells; settings: cited from earlier work
[5] = test system: T cells carrying an iC9-based safety switch gene; settings: cited from earlier work
[6] = set-up: plasma level as % of maximal concentration: dose or concentration left out as unconfirmed; settings: cited from earlier work
[7] = target: T1, B-cell maturation antigen (BCMA), human, expressed on cells (human, UniProt Q02223 1-184); assay: screen of 4300+ human proteins, each individually expressed in human HEK293 cells
T1 construct: whole, on cells; also called Tumor necrosis factor receptor superfamily member 17 (TNFRSF17)
T1 sequence (looked up): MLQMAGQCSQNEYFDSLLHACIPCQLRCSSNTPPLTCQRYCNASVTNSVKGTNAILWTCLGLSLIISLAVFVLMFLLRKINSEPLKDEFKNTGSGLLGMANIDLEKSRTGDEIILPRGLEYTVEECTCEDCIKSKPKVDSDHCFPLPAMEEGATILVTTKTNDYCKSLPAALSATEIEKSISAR
Description: The Centyrin-Fc fusion protein was screened for binding against 4300+ human proteins. The vast majority of these human proteins represent cell surface membrane proteins, each individually expressed in human HEK293 cells.

In the case of “daratumumab: recently approved standard of care agent (mAb) for multiple myeloma”, the response rate [1] is given as ≤ 30%.

With CC[C@H](C(=O)N1CCCC[C@H]1C(=O)O[C@H](CCc1ccc(OC)c(OC)c1)c1cccc(OCC(=O)NCCNC(=O)COc2cccc([C@@H](CCc3ccc(OC)c(OC)c3)OC(=O)[C@@H]3CCCCN3C(=O)[C@@H](CC)c3cc(OC)c(OC)c(OC)c3)c2)c1)c1cc(OC)c(OC)c(OC)c1 (relative stereo) [AP1903, 2-Piperidinecarboxylic acid, 1-[(2S)-1-oxo-2-(3,4,5-trimethoxyphenyl)butyl]-, 1,2-ethanediylbis[imino(2-oxo-2,1-ethanediyl)oxy-3,1-phenylene[(1R)-3-(3,4-dimethoxyphenyl)propylidene]]ester, [2S-[1(R*),2R*[S*[S*[1(R*),2R*]]]]]-(9C1)] the “lowest concentration at which apoptosis is induced” value ([2]; cells containing iC9 construct, 24 hours incubation) was ≤ 0.1 nM, the “shift of cell population to apoptotic quadrant with increasing induction agent” value ([2]; cells lacking the iC9 construct (CARTyrin only)) was “not observed” and the toxic effect [3] was “No noticeable toxic effect”. The NOAEL ([3]; repeated (three times) intravenous administration) was > 15 mg/kg, the “amount needed in vitro for effective signaling of cells” value [4] was 10 to 100 nM and the “modified T cells eliminated” value ([5]; 0.4 mg/kg 2-hour infusion, within 30 minutes following infusion) was 90%. The GVHD outcome ([5]; 0.4 mg/kg) was “GVHD completely resolved”, the adverse events ([5]; clinical studies published to date) was “no significant adverse events” and the “further depletion of modified T cells” value ([5]; during the next 24 hours) was “further log depletion”. The pharmacokinetics ([5]; human, in vivo) was “consistent and linear pharmacokinetics”, the toxicity ([5]; within and above the effective dose range (0.01-1.0 mg/kg)) was “effectively no toxicity” and the “plasma levels in relation to dose” value ([6]; 0.01-1.0 mg/kg) was “directly proportional to dose”. For the same molecule, the “plasma level as % of maximal concentration” value (“plasma level as %” for short) ([6]; 2 hours post-dose) was ~7%, the “plasma level as %” value ([6]; 10 hours post-dose) was ~1% and the well-tolerated doses ([6]; Phase I study) was “up to 1 mg/kg”. For the same molecule, the safety and tolerability ([6]; all dose levels 0.01-1.0 mg/kg) was “safe and well tolerated at all dose levels”, the “plasma level as %” value [6] was “approximately 18%” and the “mean Cmax” value ([6]; single dose infused IV over 2 hours, 0.01-1.0 mg/kg dose range) was 10 to 1275 ng/mL.

B1: Centyrin-Fc fusion protein (the Centyrin from P-BCMA-101 fused to Fc) (Fc fusion)
chain: MLPAPKNLVVSRITEDSARLSWTAPDAAFDSFPIRYIETLIWGEAIWLDVPGSERSYDLTGLKPGTEYAVVITGVKGGRFSSPLVASFTT
notes: not shown: Fc part, any linker and the order of the parts are not described
B1: binds [7].
